Test results taken from patent US9446006B2, “Hydroxytyrosol combinations for enhancing mitochondrial function and energy production” (DSM IP ASSETS B.V., priority 2009, dated 2016).
“Also recorded” adds a separate entry of the source.

Key:
C2C12 mouse myoblasts = experiment: Mitochondrial membrane potential by relative JC-1 fluorescence; type: cell-based; details: C2C12 cells, 24 h; for Increase in mitochondrial membrane potential: vs. control
From the text: The objective of the experiment was to investigate whether and how mitochondrial energy production in myoblasts is affected by hydroxytyrosol alone or in combination with other compounds. For energy production, the mitochondrial electron transport chain generates a proton gradient across the […], creating a membrane potential that powers the synthesis of ATP by the ATP synthase complex. […] If a critical concentration is reached, JC-1 forms aggregates, which changes its fluorescence properties from green to red fluorescence. […] An increased mitochondrial membrane potential indicates an improved energetic state and increased capability to generate ATP and provide energy for other cellular components. […] C2C12 cells were seeded into a 96-well cell culture plate at 1000 cells/well and cultured in growth medium (Dulbecco's modified eagle medium (DMEM) supplemented with 10% fetal bovine serum) in a standard incubator (humidified, 37° C., 5% CO2) for 24 h. […] […] After 24 h of treatment, cells were incubated with medium containing JC-1 (2 ug/ml) for 30 min at 37° C., then the staining solution was removed, DMEM without phenol red was added, and green fluorescence (ex 485 nm/em 538 nm) and red fluorescence (ex 544 nm/em 590 nm) was measured using a fluorescence plate reader (SpectraMax M5). The ratio of red to green fluorescence in each well was determined and the average and standard deviation of the quadruplicate treatments were calculated.

PGC-1α = PGC-1α protein level in adipocytes (Western blot, densitometry); type: cell-based, murine; details: 3T3-L1 adipocytes; hydroxytyrosol 1.0 μM; vs. control
Protocol: Murine 3T3-L1 pre-adipocytes (American Type Culture Collection) were cultured in Dulbecco's Modified Eagle's Medium (DMEM) supplemented with 10% fetal bovine serum and allowed to reach confluence. Differentiation of pre-adipocytes was initiated with 1 μM insulin, 0.25 μM dexamethasone and 0.5 mM 3-isobutyl-1-methylxanthine in DMEM, supplemented with 10% fetal bovine serum. After 48 h, the culture medium was replaced with DMEM supplemented with 10% fetal bovine serum and 1 μM insulin. The culture medium was changed every other day with DMEM containing 10% fetal bovine serum. […] After treatment, cells were washed twice with ice-cold PBS, lysed in sample buffer (62.5 mM Tris-Cl pH 6.8, 2% SDS, 5 mM DTT) at room temperature and vortexed. Cell lysates were then boiled for 5 minutes and cleared by centrifugation (13,000 rpm, 10 minutes at 4° C.). Protein concentration was determined using the Bio-Rad DC protein assay. The soluble lysates (10 μg per lane) were subjected to 10% SDS-PAGE, proteins were then transferred to nitrocellulose membranes and blocked with 5% non-fat milk/TBST for 1 h at room temperature. […] Western blots were developed using ECL (Roche Manheim, Germany) and quantified by scanning densitometry.

[1] = tested on: mitochondrial electron transport complex I; experiment: Mitochondrial complex I protein expression in adipocytes (Western blot); type: cell-based, murine; details: 3T3-L1 adipocytes, 48 hrs, vs. control
Protocol: Murine 3T3-L1 pre-adipocytes (American Type Culture Collection) were cultured in Dulbecco's Modified Eagle's Medium (DMEM) supplemented with 10% fetal bovine serum and allowed to reach confluence. Differentiation of pre-adipocytes was initiated with 1 μM insulin, 0.25 μM dexamethasone and 0.5 mM 3-isobutyl-1-methylxanthine in DMEM, supplemented with 10% fetal bovine serum. After 48 h, the culture medium was replaced with DMEM supplemented with 10% fetal bovine serum and 1 μM insulin. The culture medium was changed every other day with DMEM containing 10% fetal bovine serum. […] After treatment, cells were washed twice with ice-cold PBS, lysed in sample buffer (62.5 mM Tris-Cl pH 6.8, 2% SDS, 5 mM DTT) at room temperature and vortexed. Cell lysates were then boiled for 5 minutes and cleared by centrifugation (13,000 rpm, 10 minutes at 4° C.). Protein concentration was determined using the Bio-Rad DC protein assay. The soluble lysates (10 μg per lane) were subjected to 10% SDS-PAGE, proteins were then transferred to nitrocellulose membranes and blocked with 5% non-fat milk/TBST for 1 h at room temperature. Membranes were incubated with primary antibodies directed against PPAR-γ (1:1000), PGC-1α (1:1000), α-tubulin (1:10 000), Complex I (1:2000), Complex II (1:2000), Complex III (1:2000) and Complex V (1:2000) in 5% milk/TBST at 4° C. overnight. After washing membranes with TBST three times, membranes were incubated with horseradish peroxidase-conjugated secondary antibody for 1 h at room temperature. Western blots were developed using ECL (Roche Manheim, Germany) and quantified by scanning densitometry.

NC(=O)c1ncn([C@@H]2O[C@H](CO)[C@@H](O)[C@H]2O)c1N [AICAR, aminoimidazole carboxamide ribonucleotide]
Effect on mitochondrial membrane potential (red/green JC-1 fluorescence ratio) (C2C12 mouse myoblasts; 500 uM): increase in mitochondrial potential; also recorded: increase mitochondrial membrane potential | Increase in mitochondrial membrane potential (C2C12 mouse myoblasts; 500 μM): 16%

Cn1c(=O)c2c(ncn2C)n(C)c1=O [Caffeine, caffeine]
Effect on mitochondrial membrane potential (red/green JC-1 fluorescence ratio) (C2C12 mouse myoblasts; 200 uM alone): no significant effect | Increase in mitochondrial membrane potential (C2C12 mouse myoblasts; 200 μM alone): −4%

OCCc1ccc(O)c(O)c1 [Hydroxytyrosol, 3,4-dihydroxyphenylethanol]
PGC-1α protein expression (PGC-1α:α-tubulin ratio), maximum (PGC-1α): 205±52% | Mitochondrial electron transport complex I protein ([1]; 0.1 μM): 131±16% | Mitochondrial electron transport complex I protein ([1]; 1.0 μM): 163±31% | Mitochondrial electron transport complex I protein ([1]; 10.0 μM): 138±21% | Effect on mitochondrial membrane potential (red/green JC-1 fluorescence ratio) (C2C12 mouse myoblasts; 1 uM): no significant effect | Increase in mitochondrial membrane potential (C2C12 mouse myoblasts; 1 μM): 1% | Increase in mitochondrial membrane potential (C2C12 mouse myoblasts; 10 μM): 11%

C[N+](C)(C)C[C@H](O)CC(=O)[O-] [L-carnithine]
Effect on mitochondrial membrane potential (red/green JC-1 fluorescence ratio) (C2C12 mouse myoblasts; 200 uM alone): no significant effect | Increase in mitochondrial membrane potential (C2C12 mouse myoblasts; 200 μM alone): 0%
